Assay results published in PubChem BioAssay AID248 (DTP/NCI, 2004).
Several values for one entry are separate records, joined by “and”; a condition that tells them apart may be missing. Equal values may be shown once. Toxic doses and inconclusive results are not listed. Cut-off read from the data, not from the text of the source: active = T/C of 150% or more; inactive = T/C below 125%.

System: L1210 leukemia ip in BDF1 mice, survival T/C
Test: NCI In Vivo Anticancer Drug Screen. Data for tumor model L1210 Leukemia (intraperitoneal) in B6D2F1 (BDF1) mice
Details: endpoint: mean survival time, higher = longer survival
How it was run: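 Transplanted-tumor mice were given test agent; controls received vehicle only. Survival readings from the two groups were divided (treated over control).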

[1] = dose: 100.0 mg/kg/injection, schedule: Q01DX001 (ip), vehicle: Klucel (hydroxypropylcellulose) (HPC)
[2] = dose: 100.0 mg/kg/injection, schedule: Q01DX009 (ip), vehicle: Klucel (hydroxypropylcellulose) (HPC)
[3] = dose: 100.0 mg/kg/injection, schedule: Q04DX002 (ip), vehicle: Klucel (hydroxypropylcellulose) (HPC)
[4] = dose: 100.0 mg/kg/injection, schedule: Q04DX003 (ip), vehicle: Klucel (hydroxypropylcellulose) (HPC)
[5] = dose: 200.0 mg/kg/injection, schedule: Q01DX001 (ip), vehicle: Klucel (hydroxypropylcellulose) (HPC)
[6] = dose: 200.0 mg/kg/injection, schedule: Q01DX009 (ip), vehicle: Klucel (hydroxypropylcellulose) (HPC)
[7] = dose: 200.0 mg/kg/injection, schedule: Q04DX002 (ip), vehicle: Klucel (hydroxypropylcellulose) (HPC)
[8] = dose: 200.0 mg/kg/injection, schedule: Q04DX003 (ip), vehicle: Klucel (hydroxypropylcellulose) (HPC)
[9] = dose: 400.0 mg/kg/injection, schedule: Q01DX001 (ip), vehicle: Klucel (hydroxypropylcellulose) (HPC)
[10] = dose: 400.0 mg/kg/injection, schedule: Q01DX009 (ip), vehicle: Klucel (hydroxypropylcellulose) (HPC)
[11] = dose: 400.0 mg/kg/injection, schedule: Q04DX002 (ip), vehicle: Klucel (hydroxypropylcellulose) (HPC)
[12] = dose: 400.0 mg/kg/injection, schedule: Q04DX003 (ip), vehicle: Klucel (hydroxypropylcellulose) (HPC)
[13] = dose: 100.0 mg/kg/injection, schedule: Q01DX001 (ip), vehicle: saline
[14] = dose: 200.0 mg/kg/injection, schedule: Q01DX001 (ip), vehicle: saline
[15] = dose: 50.0 mg/kg/injection, schedule: Q01DX009 (ip), vehicle: saline
[16] = dose: 100.0 mg/kg/injection, schedule: Q01DX009 (ip), vehicle: saline
[17] = dose: 200.0 mg/kg/injection, schedule: Q01DX009 (ip), vehicle: saline
[18] = dose: 50.0 mg/kg/injection, schedule: Q04DX003 (ip), vehicle: Klucel (hydroxypropylcellulose) (HPC)

Measured: T/C

O=C(COCC(=O)N/N=C/c1ccccc1O)N/N=C/c1ccccc1O
inactive: [1] 93 % of control | [2] 98 % of control and 103 % of control | [3] 109 % of control | [4] 110 % of control | [5] 92 % of control | [6] 94 % of control and 98 % of control | [7] 91 % of control | [8] 108 % of control | [9] 91 % of control | [10] 95 % of control and 87 % of control | [11] 100 % of control | [12] 105 % of control

Cc1cccc(NC(=O)CSc2ccc(Cl)cc2)c1
inactive: dose: 100.0 mg/kg/injection, schedule: Q04DX002 (sc), vehicle: olive oil, sesame oil, peanut oil 100 % of control | dose: 200.0 mg/kg/injection, schedule: Q04DX002 (sc), vehicle: olive oil, sesame oil, peanut oil 106 % of control | dose: 400.0 mg/kg/injection, schedule: Q04DX002 (sc), vehicle: olive oil, sesame oil, peanut oil 89 % of control

CC12C=CC3(CCC4C(C)(C)C(OC5OC(CO)C(O)C(O)C5O)C(=O)CC4(C)C3CC1=O)C2 (stereo not drawn)
inactive: [13] 100 % of control | [14] 109 % of control | dose: 400.0 mg/kg/injection, schedule: Q01DX001 (ip), vehicle: saline 97 % of control

COc1ccc2c(c1)C=Cc1ccc(Cl)cc1N2
inactive: [2] 97 % of control | [4] 98 % of control | [6] 94 % of control | [8] 101 % of control | [10] 94 % of control | [12] 104 % of control

ClCN(CCl)CCl
inactive: dose: 50.0 mg/kg/injection, schedule: Q01DX001 (ip), vehicle: carboxymethylcellulose (CMC) 102 % of control | dose: 100.0 mg/kg/injection, schedule: Q01DX001 (ip), vehicle: carboxymethylcellulose (CMC) 94 % of control | dose: 200.0 mg/kg/injection, schedule: Q01DX001 (ip), vehicle: carboxymethylcellulose (CMC) 105 % of control

C[N+](C)(C)C.Cl[Br-]Br
inactive: dose: 6.25 mg/kg/injection, schedule: Q01DX009 (ip), vehicle: alcohol 95 % of control | dose: 12.5 mg/kg/injection, schedule: Q01DX009 (ip), vehicle: alcohol 89 % of control

CCCCCCCCCCCCCCCC(C1CCCC1)C1CCCC1
inactive: dose: 75.0 mg/kg/injection, schedule: Q01DX001 (ip), vehicle: saline with Tween-80 99 % of control | dose: 150.0 mg/kg/injection, schedule: Q01DX001 (ip), vehicle: saline with Tween-80 97 % of control | dose: 300.0 mg/kg/injection, schedule: Q01DX001 (ip), vehicle: saline with Tween-80 101 % of control

O=C(O)CCC(=O)c1ccccc1
inactive: [15] 97 % of control | [2] 100 % of control | [16] 97 % of control | [3] 97 % of control | dose: 100.0 mg/kg/injection, schedule: Q04DX002 (ip), vehicle: saline with Tween-80 108 % of control | [6] 96 % of control | [17] 105 % of control | [7] 91 % of control | dose: 200.0 mg/kg/injection, schedule: Q04DX002 (ip), vehicle: saline with Tween-80 105 % of control | [10] 107 % of control | [11] 87 % of control | dose: 400.0 mg/kg/injection, schedule: Q04DX002 (ip), vehicle: saline with Tween-80 105 % of control

CC(C)(C)C(O)C1CCCS1(=O)=O (stereo not drawn)
inactive: dose: 50.0 mg/kg/injection, schedule: Q01DX001 (ip), vehicle: Klucel (hydroxypropylcellulose) (HPC) 96 % of control

CCCCCCCCCC[n+]1cccc(C#N)c1
inactive: dose: 5.0 mg/kg/injection, schedule: Q01DX009 (ip), vehicle: saline 109 % of control | dose: 10.0 mg/kg/injection, schedule: Q01DX001 (ip), vehicle: saline 100 % of control | dose: 10.0 mg/kg/injection, schedule: Q01DX009 (ip), vehicle: saline 98 % of control | dose: 10.0 mg/kg/injection, schedule: Q04DX003 (ip), vehicle: saline 98 % of control | dose: 20.0 mg/kg/injection, schedule: Q01DX001 (ip), vehicle: saline 95 % of control | dose: 20.0 mg/kg/injection, schedule: Q01DX009 (ip), vehicle: saline 93 % of control | dose: 20.0 mg/kg/injection, schedule: Q04DX003 (ip), vehicle: saline 93 % of control | dose: 40.0 mg/kg/injection, schedule: Q01DX001 (ip), vehicle: saline 93 % of control | dose: 40.0 mg/kg/injection, schedule: Q04DX003 (ip), vehicle: saline 94 % of control

Clc1ccc(SCN2CCCCC2)cc1
inactive: dose: 25.0 mg/kg/injection, schedule: Q04DX003 (ip), vehicle: Klucel (hydroxypropylcellulose) (HPC) 93 % of control | [18] 95 % of control | [4] 93 % of control and 95 % of control

CCCCCCCCCCCCCCCCCc1cc(=O)n(-c2ccc(NC(=O)CCC(=O)OC)cc2)n1C
inactive: dose: 12.5 mg/kg/injection, schedule: Q04DX003 (ip), vehicle: Klucel (hydroxypropylcellulose) (HPC) 93 % of control | [18] 86 % of control

CC12CCC3C(CCC4CC(O)CCC43C)C1CCCC2=O (stereo not drawn)
inactive: dose: 75.0 mg/kg/injection, schedule: Q04DX003 (sc), vehicle: steriod suspending solution 102 % of control | dose: 150.0 mg/kg/injection, schedule: Q04DX003 (sc), vehicle: steriod suspending solution 93 % of control | dose: 300.0 mg/kg/injection, schedule: Q04DX003 (sc), vehicle: steriod suspending solution 91 % of control

CCOC(=O)Nc1cc(Cl)ccc1C
inactive: [1] 101 % of control | [2] 102 % of control | [3] 97 % of control and 100 % of control | [4] 103 % of control | [5] 102 % of control | [6] 102 % of control | [7] 100 % of control and 104 % of control | [8] 107 % of control | [9] 111 % of control | [10] 96 % of control | [11] 103 % of control and 110 % of control | [12] 96 % of control

CC1(O)CCCCCCC1
inactive: dose: 50.0 mg/kg/injection, schedule: Q01DX001 (ip), vehicle: saline 102 % of control | [13] 93 % of control | [14] 91 % of control

CCCn1c2ccccc2c2ccccc21
inactive: [2] 96 % of control | [6] 97 % of control | [10] 94 % of control

O=C(CSc1cc(Cl)ccc1Cl)Nc1cccc(Br)c1
inactive: dose: 50.0 mg/kg/injection, schedule: Q04DX003 (ip), vehicle: other 86 % of control | dose: 100.0 mg/kg/injection, schedule: Q04DX003 (ip), vehicle: other 90 % of control and 92 % of control | dose: 200.0 mg/kg/injection, schedule: Q04DX003 (ip), vehicle: other 89 % of control | dose: 400.0 mg/kg/injection, schedule: Q04DX003 (ip), vehicle: other 87 % of control

Cc1cc(C)c(S(=O)(=O)O)cc1C
inactive: [15] 92 % of control | [16] 92 % of control | dose: 100.0 mg/kg/injection, schedule: Q04DX003 (ip), vehicle: saline 98 % of control | [17] 88 % of control
